The test system of experiment [1] is wildtype Wnt signaling cascade. In words: HEK293 TOP Assay (Super TopFlash luciferase reporter, Wnt-3a stimulated). Particulars: Homo sapiens, HEK293, 16 h. In kind it is cell-based. Summed up:
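HEK293 cells stably carrying Super TopFlash (TOP) or FOP reporter, stimulated with recombinant human Wnt-3a (2500–5 ng/ml, two-fold steps). Both lines incubated in parallel with compound from 50 μM to 15 nM (3.16-fold) in CAFTY buffer pH 7.4 with 2 mM Ca2+ and 0.01% BSA; selectivity judged TOP vs FOP.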

The target in experiment [2] is T1, TNKS2 (Homo sapiens, UniProt Q9H2K2).
T1 sequence (Q9H2K2 1-1166): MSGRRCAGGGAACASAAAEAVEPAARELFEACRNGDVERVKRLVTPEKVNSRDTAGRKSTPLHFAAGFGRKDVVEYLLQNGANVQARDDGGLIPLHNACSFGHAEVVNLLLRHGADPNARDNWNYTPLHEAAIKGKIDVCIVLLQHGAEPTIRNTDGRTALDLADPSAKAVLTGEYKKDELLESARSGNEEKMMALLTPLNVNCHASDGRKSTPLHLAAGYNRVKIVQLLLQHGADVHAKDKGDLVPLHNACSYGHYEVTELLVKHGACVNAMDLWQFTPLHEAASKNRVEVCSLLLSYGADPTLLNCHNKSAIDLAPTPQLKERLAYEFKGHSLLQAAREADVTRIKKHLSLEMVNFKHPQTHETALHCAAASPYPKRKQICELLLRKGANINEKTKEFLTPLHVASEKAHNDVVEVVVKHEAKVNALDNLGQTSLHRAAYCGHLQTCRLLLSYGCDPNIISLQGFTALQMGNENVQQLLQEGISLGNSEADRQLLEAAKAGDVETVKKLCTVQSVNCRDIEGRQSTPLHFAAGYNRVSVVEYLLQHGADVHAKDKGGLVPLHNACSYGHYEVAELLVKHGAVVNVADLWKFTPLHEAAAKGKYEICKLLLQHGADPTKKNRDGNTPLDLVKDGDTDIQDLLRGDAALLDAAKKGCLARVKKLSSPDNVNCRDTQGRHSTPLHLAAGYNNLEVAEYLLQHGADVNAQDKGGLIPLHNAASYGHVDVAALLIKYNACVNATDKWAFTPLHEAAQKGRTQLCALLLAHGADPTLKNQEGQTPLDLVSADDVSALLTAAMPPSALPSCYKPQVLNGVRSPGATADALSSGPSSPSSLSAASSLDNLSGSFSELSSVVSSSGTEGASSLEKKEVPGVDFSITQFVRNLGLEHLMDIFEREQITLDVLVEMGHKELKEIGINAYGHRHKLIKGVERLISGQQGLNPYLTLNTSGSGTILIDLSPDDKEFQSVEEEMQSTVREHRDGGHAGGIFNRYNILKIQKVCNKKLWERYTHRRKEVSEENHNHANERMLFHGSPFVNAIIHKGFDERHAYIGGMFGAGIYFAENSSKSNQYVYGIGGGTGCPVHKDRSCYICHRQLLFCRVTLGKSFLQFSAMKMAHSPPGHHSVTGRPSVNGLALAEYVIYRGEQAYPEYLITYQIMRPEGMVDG
Nature of the experiment: Modified TNKS2 Assay 2 (auto-parsylation, [3H]-NAD+ SPA). In kind it is biochemical. The note with it: 6 nM TNKS2, 96 well.

Where [3] appears, read: HEK293 TOP reporter cell line, Wnt-3a at EC50, 16 hours incubation, compound dilution series 50 μM to 15 nM.
Setting [4] is: HEK293 TOP reporter cells, Wnt3a at EC50, 16 hours, luciferase.

SMILES strings stand for the structures.

What is called IC50 is the concentration at which inhibition is half-maximal.

For the compound `CNC(=O)c1nc[nH]c1C(=O)Nc1ccc(NC(=O)c2ccccc2OC(F)(F)F)cc1` [Example 243, N^4-methyl-N^5-(4-{[2-(trifluoromethoxy)benzoyl]amino}phenyl)-1H-imidazole-4,5-dicarboxamide], the IC50 in experiment [1] (setting [3]) is 11500 nM; in experiment [2] it was more than 10000 nM.

In the case of `CNC(=O)c1nc[nH]c1C(=O)Nc1ccc(NC(=O)c2cc(OC)ccc2Cl)cc1` [Example 248, N^5-{4-[(2-chloro-5-methoxybenzoyl)amino]phenyl}-N^4-methyl-1H-imidazole-4,5-dicarboxamide], the figures for the IC50 in experiment [1] (setting [3]) and in experiment [2] were 850 nM and 480 nM, respectively.

As to `CNC(=O)c1nc[nH]c1C(=O)Nc1ccc(NC(=O)c2cccc(OC)c2Cl)cc1` [Example 252, N^5-{4-[(2-chloro-3-methoxybenzoyl)amino]phenyl}-N^4-methyl-1H-imidazole-4,5-dicarboxamide], the IC50 in experiment [1] (setting [3]) stood at 4050 nM; in experiment [2] it was 3800 nM.

With `O=C(Nc1ccc(NC(=O)c2nc[nH]c2C(=O)NCCF)cc1)c1ccccc1Cl` [Example 166, N^4-{4-[(2-chlorobenzoyl)amino]phenyl}-N^5-(2-fluoroethyl)-1H-imidazole-4,5-dicarboxamide], the values for the IC50 in experiment [1] (setting [3]) and in experiment [2] were 530 nM and 330 nM, respectively.

For `CNC(=O)c1nc[nH]c1C(=O)Nc1ccc(NC(=O)c2ccc(F)cc2)cc1` [Example 20, N^5-{4-[(4-fluorobenzoyl)amino]phenyl}-N^4-methyl-1H-imidazole-4,5-dicarboxamide], the IC50 was 11200 nM in experiment [1] (setting [3]), 3350 nM in experiment [1] (setting [4]) and more than 10000 nM in experiment [2].

Turning to `O=C(Nc1ccc(NC(=O)c2nc[nH]c2C(=O)NCCCN2CCOCC2)cc1)c1ccccc1Cl` [Example 200, N^4-{4-[(2-chlorobenzoyl)amino]phenyl}-N^5-[3-(morpholin-4-yl)propyl]-1H-imidazole-4,5-dicarboxamide], the IC50 worked out at 870 nM in experiment [1] (setting [3]) and 580 nM in experiment [2].

Turning to `CCNC(=O)c1nc[nH]c1C(=O)Nc1ccc(NC(=O)c2ccc(OCC)cc2Cl)cc1` [Example 259, N^5-{4-[(2-chloro-4-ethoxybenzoyl)amino]phenyl}-N^4-ethyl-1H-imidazole-4,5-dicarboxamide], the IC50 is 880 nM in experiment [1] (setting [3]) and 7600 nM in experiment [2].

In the case of `CC(C)CNC(=O)c1[nH]cnc1C(=O)Nc1ccc(NC(=O)c2ccc(F)cc2Cl)cc1` [Example 147, N^4-{4-[(2-chloro-4-fluorobenzoyl)amino]phenyl}-N^5-isobutyl-1H-imidazole-4,5-dicarboxamide], the IC50 in experiment [1] (setting [3]) is 320 nM; in experiment [2], 110 nM.

For `CNC(=O)c1nc[nH]c1C(=O)Nc1ccc(NC(=O)c2ccc(OC(F)F)cc2F)cc1` [Example 251, N^5-(4-{[4-(difluoromethoxy)-2-fluorobenzoyl]amino}phenyl)-N^4-methyl-1H-imidazole-4,5-dicarboxamide], the IC50 was 7900 nM in experiment [1] (setting [3]) and more than 10000 nM in experiment [2].

`CC(C)NC(=O)c1nc[nH]c1C(=O)Nc1ccc(NC(=O)c2ccc(F)cc2Cl)cc1` [Example 10, N^5-{4-[(2-chloro-4-fluorobenzoyl)amino]phenyl}-N^4-isopropyl-1H-imidazole-4,5-dicarboxamide]: the half-inhibitory concentration (IC50) in experiment [1] (setting [3]) amounted to 170 nM; in experiment [1] (setting [4]) it was 180 nM; in experiment [2] it was 350 nM.

Turning to `CN1CCN(C(C)(C)CNC(=O)c2[nH]cnc2C(=O)Nc2ccc(NC(=O)c3ccc(F)cc3Cl)cc2)CC1` [Example 187, N^4-{4-[(2-chloro-4-fluorobenzoyl)amino]phenyl}-N^5-[2-methyl-2-(4-methylpiperazin-1-yl)propyl]-1H-imidazole-4,5-dicarboxamide], the IC50 in experiment [1] (setting [3]) came to 350 nM; in experiment [2], 100 nM.

In the case of `CC(C)(CN1CCCCC1)NC(=O)c1[nH]cnc1C(=O)Nc1ccc(NC(=O)c2ccc(F)cc2Cl)cc1` [Example 184, N^4-{4-[(2-chloro-4-fluorobenzoyl)amino]phenyl}-N^5-[2-methyl-1-(piperidin-1-yl)propan-2-yl]-1H-imidazole-4,5-dicarboxamide], the IC50 in experiment [1] (setting [3]) stood at 820 nM; in experiment [2], 50 nM.

In the case of `CCNC(=O)c1nc[nH]c1C(=O)Nc1ccc(NC(=O)c2ccccc2S(C)(=O)=O)cc1` [Example 257, N^4-ethyl-N^5-(4-{[2-(methylsulfonyl)benzoyl]amino}phenyl)-1H-imidazole-4,5-dicarboxamide], the IC50 in experiment [1] (setting [3]) worked out at 2600 nM; in experiment [2], 5000 nM.

In the case of `CNC(=O)c1nc[nH]c1C(=O)Nc1ccc(NC(=O)c2ccc(O)cc2Cl)cc1` [Example 122, N^5-{4-[(2-chloro-4-hydroxybenzoyl)amino]phenyl}-N^4-methyl-1H-imidazole-4,5-dicarboxamide], the figures for the IC50 in experiment [1] (setting [3]) and in experiment [2] were 280 nM and 530 nM, respectively.

Take `CNC(=O)c1nc[nH]c1C(=O)Nc1ccc(NC(=O)c2ccc(F)cc2Cl)c(C)c1` [Example 5, N^5-{4-[(2-chloro-4-fluorobenzoyl)amino]-3-methylphenyl}-N^4-methyl-1H-imidazole-4,5-dicarboxamide]: the IC50 in experiment [1] (setting [3]) is 240 nM; in experiment [1] (setting [4]), 240 nM; in experiment [2] it was 770 nM.

`CN(C)CCNC(=O)c1[nH]cnc1C(=O)Nc1ccc(NC(=O)c2ccc(F)cc2Br)cc1` [Example 217, N^4-{4-[(2-bromo-4-fluorobenzoyl)amino]phenyl}-N^5-[2-(dimethylamino)ethyl]-1H-imidazole-4,5-dicarboxamide]: the IC50 was 120 nM in experiment [1] (setting [3]) and 8 nM in experiment [2].

Turning to `CC(C)(CN1CCCCC1)NC(=O)c1[nH]cnc1C(=O)Nc1ccc(NC(=O)c2ccccc2Cl)cc1` [Example 171, N^4-{4-[(2-chlorobenzoyl)amino]phenyl}-N^5-[2-methyl-1-(piperidin-1-yl)propan-2-yl]-1H-imidazole-4,5-dicarboxamide], the figures for the half-maximal inhibitory concentration (IC50) in experiment [1] (setting [3]) and in experiment [2] were 670 nM and 340 nM, respectively.

Consider `O=C(Nc1ccc(NC(=O)c2nc[nH]c2C(=O)NC2CCOC2)cc1)c1ccc(F)cc1Cl` (centres unmarked) [Example 236, N^4-{4-[(2-chloro-4-fluorobenzoyl)amino]phenyl}-N^5-(tetrahydrofuran-3-yl)-1H-imidazole-4,5-dicarboxamide], for which the values for the IC50 in experiment [1] (setting [3]) and in experiment [2] were 420 nM and 60 nM, respectively.

As for `CC(C)(C)CNC(=O)c1[nH]cnc1C(=O)Nc1ccc(NC(=O)c2ccccc2Cl)cc1` [Example 148, N^4-{4-[(2-chlorobenzoyl)amino]phenyl}-N^5-(2,2-dimethylpropyl)-1H-imidazole-4,5-dicarboxamide], the values for the 50% inhibitory concentration (IC50) in experiment [1] (setting [3]) and in experiment [2] were 1750 nM and 1100 nM, respectively.

As for `CNC(=O)c1nc[nH]c1C(=O)Nc1ccc(NC(=O)c2ccc(F)cc2Cl)nc1` [Example 16, N^5-{6-[(2-chloro-4-fluorobenzoyl)amino]pyridin-3-yl}-N^4-methyl-1H-imidazole-4,5-dicarboxamide], the results for the IC50 in experiment [1] (setting [3]), in experiment [1] (setting [4]) and in experiment [2] were 180 nM, 180 nM and 100 nM, respectively.

With `CC(C)(CNC(=O)c1[nH]cnc1C(=O)Nc1ccc(NC(=O)c2ccccc2Cl)cc1)N1CCCCC1` [Example 165, N^4-{4-[(2-chlorobenzoyl)amino]phenyl}-N^5-[2-methyl-2-(piperidin-1-yl)propyl]-1H-imidazole-4,5-dicarboxamide], the values for the IC50 in experiment [1] (setting [3]) and in experiment [2] were 290 nM and 70 nM, respectively.

For the compound `O=C(Nc1ccc(NC(=O)c2nc[nH]c2C(=O)NCCCN2CCOCC2)cc1)c1ccc(F)cc1` [Example 206, N^4-{4-[(4-fluorobenzoyl)amino]phenyl}-N^5-[3-(morpholin-4-yl)propyl]-1H-imidazole-4,5-dicarboxamide], the IC50 in experiment [1] (setting [3]) amounted to 2100 nM; in experiment [2], 5300 nM.

As for `CNC(=O)c1nc[nH]c1C(=O)Nc1ccc(NC(=O)c2ncccc2Cl)cc1` [Example 247, N^5-(4-{[(3-chloropyridin-2-yl)carbonyl]amino}phenyl)-N^4-methyl-1H-imidazole-4,5-dicarboxamide], the IC50 was found to be 400 nM in experiment [1] (setting [3]) and 570 nM in experiment [2].

Source of the values: patent US9884063B2, “Amido-substituted azole compounds” (Bayer Pharma Aktiengesellschaft, priority 2014, dated 2018).
